Reference: article PMC3475717, “A Spiroligomer α-Helix Mimic That Binds HDM2, Penetrates Human Cells and Stabilizes HDM2 in Cell Culture” (PLoS ONE, 2012)
Values joined by “and” are separate entries in the source; they are usually repeats but may differ in a detail not shown here. Identical values can stand only once.

Molecular target: T1, HDM2_25–117 (Homo sapiens, UniProt Q00987)
T1 construct: unnamed fusion partner ('fusion protein'); made in house; host or cells: E. coli BL21
Assay: direct binding fluorescence polarization assay
Details: for fluorescence polarization: oligomer 10 nM, three independent replicates
Experimental: To measure the binding affinity of the functionalized spiroligomers to HDM2 we utilized a direct binding fluorescence polarization assay. The binding of the fluorescein labeled spiroligomers was measured at 10 nM spiroligomer in the presence of varying concentrations of HDM2_25–117 [31]. […] The initial screen of spiroligomers including 3–7 was carried out on the spiroligomer backbone containing all (S) stereochemistry to identify appropriate functional groups to mimic the side chains of Phe19, Trp23 and Leu26 of the p53 helix.
HDM2 Protein Expression. A fusion protein consisting of residues 1-140 (the plasmid was a generous gift from the lab of Neil Zondlo, University of Delaware) was prepared by over-expression.4 Plasmids were used to transform chemically competent E-coli BL21 Cells (Novagen), and a single colony was used to inoculate 2×4 mL LB media culture tubes containing 0.1 mg/mL ampicillin, at 37 °C overnight. These overnight cultures were used to inoculate a 1 L culture of TB media containing 0.1 mg/ml ampicillin. The culture was incubated at 37 °C with shaking at 250 rpm until the optical density at 600 nm reached to 0.9 absorbance units. Protein overexpression was then induced by the addition of 20% isopropyl β-D-thiogalactoside (IPTG) to 0.4 mM final concentration. The culture was then grown for additional 5 hours at 30 °C. Then cells were harvested at 4 °C by centrifugation at 4500 rpm for 20 min.
The cell pellet was resuspended in chilled 1x Binding Buffer (0.5 M NaCl, 20 mMTris-Hcl, 5 mM imidazole, pH 7.9), frozen and stored at -80 °C until protein purification.
Protein Purification. The frozen cell pellet was thawed at 4 °C and lysed by sonication for 2 minutes with 10 sec on and 20 sec off. Cell debris was pelleted by centrifugation for 30 min at 15000 g, 4 °C and the supernatant was filtered through a 0.2 μm syringe filter. A column was prepared using 2 mL Novagen His-Bind suspended resin and resin was washed with 3 volumes DI water. The flow rate maintained was not more than 0.5 ml/min throughout the purification.
The resin was charged with 5 vol 1x Charge Buffer (50 mM NiSO4) and then equilibrated with 3 vol 1x Binding Buffer (5 mM imidazole). After loading the column with prepared extract, the resin was washed with 10 vol 1x Binding Buffer and then with 6 vol 1x Wash Buffer (10 mM imidazole). Protein was then eluted with 6 vol 1x Elution Buffer (1 M imidazole). The eluate was captured in fractions of 0.5 ml. Fractions were assayed with Coomasie blue and desired fractions were combined and dialyzed using spectra/por 6 Dialysis Membranes of 10,000 MWCO (Spectrum Laboratories) in PBS (pH 7.4, 5 mM EDTA and 0.5 mM DTT) for overnight.
The resulting protein was characterized by SDS-PAGE (4-20% gradient gel) for purity analysis and concentrations were measured by UV analysis.
Fresh protein was used immediately for protein binding experiments. […]
Direct Binding Fluorescence Polarization Experiments. Fluorescence polarization experiments were undertaken to assess the ability of spiroligomers to bind HDM2, a protein with hydrophobic cleft that binds the p53 N-terminal helical domain. Fluoresceinated oligomers (conc. of 10 nM) were incubated for 30 minutes at room temperature with sequential dilutions of […]

T1 sequence (Q00987 25-117): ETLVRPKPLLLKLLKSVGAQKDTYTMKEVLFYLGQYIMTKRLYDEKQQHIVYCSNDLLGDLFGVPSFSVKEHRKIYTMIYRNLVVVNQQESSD

## CC(C)CN1C(=O)[C@@H]2C[C@@]3(CN2C(=O)[C@@]12C[C@H]1C(=O)N(Cc4ccc(Cl)c(Cl)c4)[C@]4(C[C@@H]5C(=O)N[C@@H](CCc6ccccc6)C(=O)N5C4)C(=O)N1C2)NC(=O)[C@@H](CCCCNC(=S)Nc1ccc2c(c1)C(=O)OC21c2ccc(O)cc2Oc2cc(O)ccc21)NC3=O [Compound 1]
1 versus 9, differing only in the stereocenter of the lysine residue
  increase in affinity for HDM2: ~17 fold
[hDM2] 0.08106232 nM
  fluorescence polarization: 68. 58 millipolarization and 68. 27 millipolarization and 70. 47 millipolarization
[hDM2] 0.1621246 nM
  fluorescence polarization: 65. 92 millipolarization and 65. 99 millipolarization and 65. 14 millipolarization
[hDM2] 0.3242493 nM
  fluorescence polarization: 75. 62 millipolarization and 76. 93 millipolarization and 62. 45 millipolarization
[hDM2] 0.6484985 nM
  fluorescence polarization: 76. 88 millipolarization and 65. 12 millipolarization and 66. 54 millipolarization
[hDM2] 1.296997 nM
  fluorescence polarization: 74. 46 millipolarization and 61. 79 millipolarization and 70. 28 millipolarization
[hDM2] 2.593994 nM
  fluorescence polarization: 69. 71 millipolarization and 64. 6 millipolarization and 67. 34 millipolarization
[hDM2] 5.187988 nM
  fluorescence polarization: 68. 52 millipolarization and 66. 82 millipolarization and 65. 52 millipolarization
[hDM2] 10.37598 nM
  fluorescence polarization: 78. 3 millipolarization and 73. 95 millipolarization and 76. 62 millipolarization
[hDM2] 20.75195 nM
  fluorescence polarization: 75. 45 millipolarization and 72. 99 millipolarization and 76. 91 millipolarization
[hDM2] 41.50391 nM
  fluorescence polarization: 82. 2 millipolarization and 90. 13 millipolarization and 83. 56 millipolarization
[hDM2] 83.00781 nM
  fluorescence polarization: 90. 07 millipolarization and 92. 68 millipolarization and 90. 31 millipolarization
[hDM2] 166.0156 nM
  fluorescence polarization: 123. 93 millipolarization and 122. 78 millipolarization and 128. 68 millipolarization
[hDM2] 332.0313 nM
  fluorescence polarization: 176. 96 millipolarization and 168. 11 millipolarization and 165. 21 millipolarization
[hDM2] 664.0625 nM
  fluorescence polarization: 219. 16 millipolarization and 207. 64 millipolarization and 219. 81 millipolarization
[hDM2] 1328.125 nM
  fluorescence polarization: 249. 64 millipolarization and 254. 41 millipolarization and 260. 31 millipolarization
[hDM2] 2656.25 nM
  fluorescence polarization: 276. 63 millipolarization and 280. 28 millipolarization and 279. 87 millipolarization
[hDM2] 5312.5 nM
  fluorescence polarization: 283. 09 millipolarization and 283. 22 millipolarization and 294. 56 millipolarization
[hDM2] 10625 nM
  fluorescence polarization: 279. 23 millipolarization and 291. 88 millipolarization and 291. 17 millipolarization
[hDM2] 21250 nM
  fluorescence polarization: 289. 83 millipolarization and 291. 58 millipolarization and 284. 9 millipolarization
[hDM2] 42500 nM
  fluorescence polarization: 280. 74 millipolarization and 287. 71 millipolarization and 288. 59 millipolarization
Epimers 12 and 1
  difference in binding to HDM2: four-fold
Fluorescein labeled ligand at 10 nM, varying HDM2, read-out: Kd (HDM2)
  Kd: 0.4 µM
